In patent US7635491B2, “Method for administering selenium for treating patients suffering from systemic inflammatory response syndrome (SIRS), and composition for implementing the treatment” (priority 1998, dated 2009):

Test system: severe systemic inflammatory response syndrome (SIRS)
Assay: Treatment of intensive-care patients with severe SIRS / septic shock by continuous administration of sodium selenite (case reports)
Assay type: in vivo, human
Protocol: A patient, 75 kg, chronic alcoholic with no history of icteroascitic, hemorrhagic or encephalopathic compensation, was admitted to postoperative intensive care with generalized purulent peritonitis from colonic perforation during an attack of diverticular sigmoiditis.
His initial hemodynamics were maintained by perfusion. […] There was a moderate renal insufficiency. An adapted empirical antibiotic therapy was begun, and modified after 48 hours in view of the antiobiograms. At 24 hours severity indexes were IGS II 29, APACHE II 17 and SOFA score was 5. One day after the operation, the situation worsened rapidly with onset of a state of shock with lactic acidosis 5 μmol/l requiring administration of dopamine then rapidly noradrenaline up to 4 mg/h (0.9 μg/kg/min). There was a deterioration of respiratory state requiring increase of the FiO2 because of the onset of an acute adult respiratory distress syndrome (ARDS). As soon as the necessity of noradrenaline administration was recognized, a treatment with sodium selenite by continuous administration was begun at a dose of 4 mg of atomic selenium equivalent over the first 24 hours, followed by continuous administration of sodium selenite at a dose of 1 mg of atomic selenium equivalent for 10 days.
A patient, depressive, anorexic, 51 kg and 1.75 m tall, was admitted on a tentative diagnosis of drug-induced suicide with ingestion of a large amount of analgesics and sedatives. The diagnosis was rapidly changed to generalized purulent peritonitis from a perforated gastric ulcer. They were transferred to postoperative intensive care. There was also a shock condition requiring perfusion and introduction of catechol amines as noradrenaline and dolbutamine; lactic acidosis at 6 μmol/l. Antibacterial and antifungal antibiotic therapy was performed. Diuresis was maintained under diuretics. One hour after the start of noradrenaline administration, a treatment with sodium selenite by continuous administration was begun at a dose of 4 mg of atomic selenium equivalent over the first 24 hours, followed by continuous administration of sodium selenite at a dose of 1 mg of atomic selenium equivalent for 10 days. At 24 hours the severity indexes were IGS II 44, APACHE II 35. The SOFA score was 8.
A patient, presenting major alcohol-tobacco addiction (more than 1 liter of wine per day, 2 packets of cigarettes per day), chronic BPCO respiratory insufficiency, stage 2 arteritis of the lower limbs and deterioration in general health for several months with a productive cough, was transferred to intensive care after a short stay in general medicine. At admission there was a respiratory distress requiring emergency intubation-ventilation. Blood gases confirmed major respiratory acidosis. The patient was feverish. There was a hyperleucocytosis of 24 000 leucocytes of which 88% were polymorphonuclear cells. Blood pressure was stable under perfusion, however there were blotches on the knees. There were no coagulation problems nor renal insufficiency. At 24 hours IGS II was 41, APACHE II 26, and SOFA score 8. Lung samples taken by protected telescopic brush and brochoalveolar washing confirmed the diagnosis of community-acquired pneumonia: 47% of cells infected, Haemophilus influenza β-lactamase negative and wild-type streptococcal anginosis.
The immediate development was marked by a rapid deterioration of respiratory state with necessity of ventilation at FiO2 100%, PEP 8. In addition, very substantial perfusion was necessary with measurement of pressure by right catheterization. Dopamine had to be administered at 10 μg/kg/min. After 8 hours dopamine administration, a treatment with sodium selenite by continuous administration was begun at a dose of 4 mg of atomic selenium equivalent over the first 24 hours, followed by continuous administration of sodium selenite at a dose of 1 mg of atomic selenium equivalent for 10 days. […]

## O=[Se](O)O [sodium selenite, Sodium selenite [Na2O3Se]]
Example 1
  left intensive care, time after the operation: 10 days
Example 1, no disseminated intravascular coagulation
  platelet level: higher than 150 000 platelets/mm^3
Example 2
  extubation, time after the operation: 20 days
  platelet level: 50%
Example 2: patient, purulent peritonitis, shock, 4 mg atomic selenium equivalent over first 24 hours, then 1 mg for 10 days
  time to regression of the shock condition: 24 h
Example 3
  hyperlactatemia, maximum (then reduced as from the second day): 10 µmol/L
Example 3, moderate CIVD
  thrombopenia, platelets: 7500 platelets/mm^3
